Values joined by “and” are separate entries in the source; they are usually repeats but may differ in a detail not shown here. Equal entries are not always repeated.
Tests used:
DENV-2 RL strain = experiment: Delayed-treatment study (therapeutic setting); format: in vivo, AG129 mice; details: for Viral Load Copies/ml / Viral Load Log10: 30 mg/kg/day, individual mice; for Viral (load), log10 of the column before (head empty) / Viral (load; head cut off): JNJ-1802 30 mg/kg
RSV rgRSV224 = experiment: microbe, parasite or virus in culture; format: cell-based; details: human respiratory syncytial virus, HeLa
[1] = start treatment day 4 p.i., blood sampling day 6 p.i.
[2] = start treatment day 4 p.i., blood sampling day 7 p.i.
[3] = start treatment day 4 p.i., blood sampling day 8 p.i.
[4] = start treatment day 4 p.i., blood sampling day 9 p.i.
[5] = start treatment day 5 p.i., blood sampling day 3 p.i.
[6] = start treatment day 5 p.i., blood sampling day 4 p.i.
[7] = start treatment day 5 p.i., blood sampling day 5 p.i.
[8] = start treatment day 5 p.i., blood sampling day 6 p.i.
[9] = start treatment day 5 p.i., blood sampling day 7 p.i.
[10] = start treatment day 5 p.i., blood sampling day 8 p.i.
[11] = start treatment day 5 p.i., blood sampling day 9 p.i.
[12] = start treatment day 0 p.i., blood day 10, individual mice, 30 mg/kg
[13] = start treatment day 0 p.i., blood day 12, individual mice
[14] = start treatment day 0 p.i., blood day 14, individual mice, 30 mg/kg
[15] = start treatment day 4 p.i., blood day 10, individual mice, 30 mg/kg
[16] = start treatment day 4 p.i., blood day 12, individual mice
[17] = start treatment day 4 p.i., blood day 14, individual mice, 30 mg/kg
[18] = start treatment day 5 p.i., blood day 10, individual mice, 30 mg/kg
[19] = start treatment day 5 p.i., blood day 12, individual mice, 30 mg/kg
[20] = start treatment day 5 p.i., blood day 14, individual mice

With `COc1cc(N[C@H](C(=O)c2c[nH]c3ccc(OC(F)(F)F)cc23)c2ccc(Cl)cc2OC)cc(S(C)(=O)=O)c1` [JNJ-1802] the “Viral Load Copies/ml” value (DENV-2 RL strain; [1]) was 1.31E+03 Copies/ml and 2.07E+03 Copies/ml and 3.65E+04 Copies/ml and 6.54E+03 Copies/ml, the “Viral Load Log10” value (DENV-2 RL strain; [1]) was 4.0690 Log10 and 3.1169 Log10 and 3.3153 Log10 and 4.5619 Log10 and 3.8159 Log10 and the “Viral Load Copies/ml” value (DENV-2 RL strain; [2]) was 1.31E+03 Copies/ml and 2.07E+03 Copies/ml and 4.29E+06 Copies/ml and 6.54E+03 Copies/ml. For the same compound, the “Viral Load Log10” value (DENV-2 RL strain; [2]) was 3.1169 Log10 and 3.3153 Log10 and 6.6320 Log10 and 3.8159 Log10, the “Viral Load Copies/ml” value (DENV-2 RL strain; [3]) was 1.31E+03 Copies/ml and 1.87E+03 Copies/ml and the “Viral Load Log10” value (DENV-2 RL strain; [3]) was 3.1169 Log10 and 3.2718 Log10. The “Viral Load Copies/ml” value (DENV-2 RL strain; [4]) was 1.31E+03 Copies/ml, the “Viral Load Log10” value (DENV-2 RL strain; [4]) was 3.1169 Log10 and the “Viral Load Copies/ml” value (DENV-2 RL strain; [5]) was 1.69E+06 Copies/ml and 8.64E+05 Copies/ml. The “Viral Load Log10” value (DENV-2 RL strain; [5]) was 6.8381 Log10 and 6.2281 Log10 and 5.9363 Log10, the “Viral Load Copies/ml” value (DENV-2 RL strain; [6]) was 1.81E+06 Copies/ml and 3.46E+06 Copies/ml and 7.59E+06 Copies/ml and 4.62E+06 Copies/ml and the “Viral Load Log10” value (DENV-2 RL strain; [6]) was 6.2566 Log10 and 6.5396 Log10 and 6.8802 Log10 and 6.6643 Log10. The “Viral Load Copies/ml” value (DENV-2 RL strain; [7]) was 3.99E+07 Copies/ml and 1.36E+07 Copies/ml and 2.74E+07 Copies/ml and 2.11E+07 Copies/ml and 1.62E+07 Copies/ml, the “Viral Load Log10” value (DENV-2 RL strain; [7]) was 7.5974 Log10 and 7.1163 Log10 and 7.4220 Log10 and 7.3194 Log10 and 7.2021 Log10 and the “Viral Load Copies/ml” value (DENV-2 RL strain; [8]) was 1.03E+06 Copies/ml and 1.20E+06 Copies/ml and 1.55E+06 Copies/ml and 4.56E+05 Copies/ml. For the same compound, the “Viral Load Log10” value (DENV-2 RL strain; [8]) was 6.0131 Log10 and 6.0795 Log10 and 6.1913 Log10 and 5.6591 Log10, the “Viral Load Copies/ml” value (DENV-2 RL strain; [9]) was 3.15E+05 Copies/ml and the “Viral Load Log10” value (DENV-2 RL strain; [9]) was 5.4984 Log10 and 4.8630 Log10. The “Viral Load Copies/ml” value (DENV-2 RL strain; [10]) was 1.31E+03 Copies/ml and 1.96E+03 Copies/ml and 5.65E+04 Copies/ml, the “Viral Load Log10” value (DENV-2 RL strain; [10]) was 3.1169 Log10 and 3.2930 Log10 and 4.7518 Log10 and the “Viral Load Copies/ml” value (DENV-2 RL strain; [11]) was 1.31E+03 Copies/ml and 1.37E+04 Copies/ml. For the same compound, the “Viral Load Log10” value (DENV-2 RL strain; [11]) was 3.1169 Log10 and 4.1354 Log10, the “time until viral loads below LLOQ” value (DENV-2 RL strain; 60 mg/kg/day b.i.d., start day 4) was at most 48 h and the “Viral (load), log10 of the column before (head empty)” value (from here on “Viral (load), log10”) (DENV-2 RL strain; [12]) was 3.1169 and 3.2930. For the same compound, the “Viral (load; head cut off)” value (DENV-2 RL strain; [12]) was 1.31E+03 and 1.96E+03, the “Viral (load), log10” value (DENV-2 RL strain; [13]) was 3.1169 and the “Viral (load; head cut off)” value (DENV-2 RL strain; [13]) was 1.31E+03. The “Viral (load), log10” value (DENV-2 RL strain; [14]) was 3.1169 and 3.6909, the “Viral (load; head cut off)” value (DENV-2 RL strain; [14]) was 1.31E+03 and 1.57E+03 and 4.91E+03 and the “Viral (load), log10” value (DENV-2 RL strain; [15]) was 3.1468 and 3.2930 and 3.1169. For the same compound, the “Viral (load; head cut off)” value (DENV-2 RL strain; [15]) was 1.40E+03 and 1.96E+03 and 1.64E+03 and 1.31E+03, the “Viral (load), log10” value (DENV-2 RL strain; [16]) was 3.1169 and the “Viral (load; head cut off)” value (DENV-2 RL strain; [16]) was 1.31E+03. For the same compound, the “Viral (load), log10” value (DENV-2 RL strain; [17]) was 3.1169, the “Viral (load; head cut off)” value (DENV-2 RL strain; [17]) was 1.31E+03 and 1.57E+03 and the “Viral (load), log10” value (DENV-2 RL strain; [18]) was 4.0084 and 3.1169. For the same compound, the “Viral (load; head cut off)” value (DENV-2 RL strain; [18]) was 1.02E+04 and 1.31E+03, the “Viral (load), log10” value (DENV-2 RL strain; [19]) was 3.1169 and 4.0709 and the “Viral (load; head cut off)” value (DENV-2 RL strain; [19]) was 1.31E+03 and 1.18E+04. For the same compound, the “Viral (load), log10” value (DENV-2 RL strain; [20]) was 3.1169, the “Viral (load; head cut off)” value (DENV-2 RL strain; [20]) was 1.31E+03 and the EC50 (RSV rgRSV224; read-out: EC50, Mean) was 3.18 µM. For the same compound, the EC90 (RSV rgRSV224; read-out: EC90, Mean) was 5.46 µM.
